According to PubChem BioAssay (NCI):
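Five compound concentrations were applied to cells in 96-well plates for 48 hours; endpoints were derived by simple linear interpolation of the resulting dose-response curve. TGI denotes the concentration required for complete inhibition of growth.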

Assays:
Assay in all cases: growth of human tumour cells (NCI), 48 h
786-0 renal = test system: 786-0 renal
A498 renal = test system: A498 renal
A549 NSCLC = test system: A549 NSCLC
ACHN renal = test system: ACHN renal
DU-145 prostate = test system: DU-145 prostate
EKVX NSCLC = test system: EKVX NSCLC
HCT-116 colon = test system: HCT-116 colon
HCT-15 colon = test system: HCT-15 colon
HOP-62 NSCLC = test system: HOP-62 NSCLC
HOP-92 NSCLC = test system: HOP-92 NSCLC
HS 578T breast = test system: HS 578T breast
HT29 colon = test system: HT29 colon
IGROV1 ovarian = test system: IGROV1 ovarian
K-562 leukemia = test system: K-562 leukemia
KM12 colon = test system: KM12 colon
LOX IMVI melanoma = test system: LOX IMVI melanoma
M14 melanoma = test system: M14 melanoma
MCF7 breast = test system: MCF7 breast
MDA-MB-231 breast = test system: MDA-MB-231 breast
MDA-MB-435 = test system: MDA-MB-435
MDA-N = test system: MDA-N
MOLT-4 leukemia = test system: MOLT-4 leukemia
NCI-H226 lung = test system: NCI-H226 lung
NCI-H460 lung = test system: NCI-H460 lung
NCI-H522 lung = test system: NCI-H522 lung
NCI/ADR-RES ovarian = test system: NCI/ADR-RES ovarian
OVCAR-3 ovarian = test system: OVCAR-3 ovarian
OVCAR-5 ovarian = test system: OVCAR-5 ovarian
OVCAR-8 ovarian = test system: OVCAR-8 ovarian
PC-3 prostate = test system: PC-3 prostate
RPMI-8226 leukemia = test system: RPMI-8226 leukemia
SF-268 CNS = test system: SF-268 CNS
SF-295 CNS = test system: SF-295 CNS
SF-539 CNS = test system: SF-539 CNS
SK-MEL-2 melanoma = test system: SK-MEL-2 melanoma
SK-MEL-28 melanoma = test system: SK-MEL-28 melanoma
SK-OV-3 ovarian = test system: SK-OV-3 ovarian
SN12C renal = test system: SN12C renal
SNB-19 CNS = test system: SNB-19 CNS
SNB-75 CNS = test system: SNB-75 CNS
SR leukemia = test system: SR leukemia
SW-620 colon = test system: SW-620 colon
T-47D breast = test system: T-47D breast
TK-10 renal = test system: TK-10 renal
U251 CNS = test system: U251 CNS
UACC-257 melanoma = test system: UACC-257 melanoma
UACC-62 melanoma = test system: UACC-62 melanoma
UO-31 renal = test system: UO-31 renal

Measured: TGI

CNc1cc(N)ccc1C(=O)N1CCC[C@H]1CO
> 100 µM: 786-0 renal | A498 renal | A549 NSCLC | ACHN renal | DU-145 prostate | EKVX NSCLC | HCT-116 colon | HCT-15 colon | HOP-62 NSCLC | HOP-92 NSCLC | HS 578T breast | HT29 colon | IGROV1 ovarian | K-562 leukemia | KM12 colon | LOX IMVI melanoma | M14 melanoma | MCF7 breast | MDA-MB-231 breast | MDA-MB-435 | MDA-N | MOLT-4 leukemia | NCI-H226 lung | NCI-H460 lung | NCI-H522 lung | NCI/ADR-RES ovarian | OVCAR-3 ovarian | OVCAR-5 ovarian | OVCAR-8 ovarian | PC-3 prostate | RPMI-8226 leukemia | SF-268 CNS | SF-295 CNS | SF-539 CNS | SK-MEL-2 melanoma | SK-MEL-28 melanoma | SK-OV-3 ovarian | SN12C renal | SNB-19 CNS | SNB-75 CNS | SR leukemia | SW-620 colon | T-47D breast | TK-10 renal | U251 CNS | UACC-257 melanoma | UACC-62 melanoma | UO-31 renal
